# Assay results as given in article PMC9683399 (Journal of medicinal chemistry, 2022).
# Target: BRD4 D2 (Homo sapiens, UniProt O60885)
structure (smiles),measurement,value
Cc1sc2c(c1C)C(c1ccc(Cl)cc1)=N[C@@H](CC(=O)OC(C)(C)C)c1nnc(C)n1-2 [(+)-JQ1],binding to BRD4 D2 by ITC,potent binding
